System: Pycnoporus sanguineus MUCL 41582
Assay: Laccase activity of fungal culture with inductors
Format: cell-based
Settings: for Enzymatic activity: laccase activity, inductor added after 2 days of pre-culture, measured after 5 days of incubation
Description: In an example, the inductors NY3, NY5 and RBBR were added to a fungal culture of Pycnoporus sanguineus MUCL 41582 after 2 days of pre-culture. Laccase activity was measured after 5 days of incubation of the culture with the inductors. Results are indicated in the below-given Table 2 and show clearly that laccase activity is enhanced when the fungus is cultured in the presence of inductors.

| SMILES | Enzymatic activity | increase of laccase activity (versus culture without inductor) |
| --- | --- | --- |
| Cc1ccc(OS(=O)(=O)Oc2ccc(Nc3cc(S(=O)(=O)O)c(N)c4c3C(=O)c3ccccc3C4=O)cc2)cc1 [NY5] | 11.60 nmol/mL | more than 20 fold |
| Nc1c(S(=O)(=O)O)cc(NC2CCCCC2)c2c1C(=O)c1ccccc1C2=O [NY3] | 3.87 nmol/mL |  |
| Nc1c(S(=O)(=O)[O-])cc(Nc2cccc(S(=O)(=O)CCOS(=O)(=O)[O-])c2)c2c1C(=O)c1ccccc1C2=O.[Na+].[Na+] [RBBR] | 5.40 nmol/mL |  |
